Patent US20050228007A1, “Isoquinoline derivatives and methods of use thereof” (priority 2004, published 2005)
Where a name gives a salt, the structure may show the parent alone. Read-outs that look alike come from different tables or passages of the source. Values belong to the compound of their own block, whether it stands above or below them.

Key:
[1] = system: middle cerebral artery occlusion/reperfusion; assay: Rat model of middle cerebral artery occlusion/reperfusion; type: in vivo; settings: 3 mg/kg/day in 3 divided i.p. doses; 2 h occlusion, 24 h reperfusion; vs vehicle-treated controls
Description: Occlusion lasted for 2 hours, followed by reperfusion for 24 hours. Infarct size was quantified with tetrazolium staining. […] There was an approximately 80% reduction in the degree of cortical necrosis and neuronal death in the animals administered with 8l (mesylate salt), when compared to vehicle-treated controls.

CLP induced shock = assay: Cecal ligation and puncture (CLP) induced shock mortality; type: in vivo; settings: 3 mg/kg/day; over 24 h; untreated 100% death
[2] = system: ischemic and reperfused gut; assay: Mouse model of ischemic and reperfused gut
Description: In order to substantiate the efficacy of the Isoquinoline Derivatives in ischemia-reperfusion conditions, the effect of an illustrative Isoquinoline Derivative in a mouse model of ischemic and reperfused gut was tested. […] Following the end of the reperfusion, gut permeability was measured with the FD4 method in evened gut sacks (Liaudet et al., Shock 2000, 14(2): 134-41).

Balb/c mice = assay: LPS (endotoxin) induced mortality; type: in vivo; settings: 3 mg/kg/day; 100 mg/kg LPS i.p.; over 24 h; untreated 50%
TNF-alpha = assay: LPS induced TNF production in mice; type: in vivo; parameters: unit not given here; settings: LPS 10 mg/kg i.p., plasma at 90 minutes, vehicle 6994.0 ± 904.4, 8l as mesylate salt
PARS = target: T1, PARS (Mus musculus, UniProt P11103); assay: PARS activation in peroxynitrite-treated cultured macrophages (whole-cell 3H-NAD+ assay); type: cell-based; settings: cultured murine macrophages
T1 construct: endogenous in cells; host or cells: RAW mouse macrophages
Description: Raw mouse macrophages were cultured in DMEM medium with high glucose and supplemented with 10% fetal bovine serum. Cells were used at 80% confluence in 12-well plates. Cells were pretreated with various concentrations (100 nM -1 µM) of an Isoquinoline Derivative for 10 min. Peroxynitrite, a prototypical oxidant which induces DNA single strand breakage, was used to induce PARS activation. Peroxynitrite was diluted in phosphate buffered saline (PBS) (pH 11.0) and added to the cells in a bolus of 50 μl. Cells were then incubated for 20 min. […] After the 20 min incubation, the cells were spun, the medium was aspirated and the cells were resuspended in 0.5 ml assay buffer (56 mM HEPES pH 7.5, 28 mM KCl, 28 mM NaCl, 2 mM MgCl2, 0.01% w/v digitonin and 0.125 μM NAD^+ and 0.5 μCi/ml ^3H-NAD^+). Following an incubation in assay buffer, (10 min at 37° C.), PARS activity was measured as follows: 200 μl ice cold 50% w/v TCA was added and the samples were incubated for 4 hours at 4° C. Samples were then spun (10 min @ 10,000 g) and pellets washed twice with ice cold 5% w/v TCA and solubilized overnight in 250 μl 2% w/v SDS/0.1 N NaOH at 37° C. The contents of the tubes were added to 6.5 ml ScintiSafe Plus scintillation liquid (Fisher Scientific) and radioactivity was determined using a liquid scintillation counter (Wallac, Gaithersburg, Md.).

[3] = system: streptozotocin (STZ) induced hyperglycemia; assay: Single high-dose streptozotocin model of diabetes; type: in vivo, mice; settings: 3 mg/kg i.p.; STZ 160 mg/kg; blood sugar 3 days later; STZ + vehicle 320 ± 13, basal 153 ± 21; 8l as mesylate salt
Description: PARS inhibitors and PARS deficiency are known to reduce the development of diabetes and the incidence of diabetic complications (Mabley et al., Br J. Pharmacol. 2001, 133(6):909-9; and Soriano et al., Nat Med. 2001, 7(1):108-13). […] Briefly, 160 mg/kg streptozotocin was injected to mice treated with vehicle or with illustrative Isoquinoline Derivatives intraperitoneally (3 mg/kg) and 3 days later blood sugar levels were determined using a blood glucose meter.

thymocytes = settings: peroxynitrite induced, control 98%
Description: In addition in vitro studies in isolated thymocytes, cells were exposed to peroxynitrite or hydrogen peroxide (toxic oxidant species) to induce cytotoxicity.

T1 sequence (P11103 whole entry): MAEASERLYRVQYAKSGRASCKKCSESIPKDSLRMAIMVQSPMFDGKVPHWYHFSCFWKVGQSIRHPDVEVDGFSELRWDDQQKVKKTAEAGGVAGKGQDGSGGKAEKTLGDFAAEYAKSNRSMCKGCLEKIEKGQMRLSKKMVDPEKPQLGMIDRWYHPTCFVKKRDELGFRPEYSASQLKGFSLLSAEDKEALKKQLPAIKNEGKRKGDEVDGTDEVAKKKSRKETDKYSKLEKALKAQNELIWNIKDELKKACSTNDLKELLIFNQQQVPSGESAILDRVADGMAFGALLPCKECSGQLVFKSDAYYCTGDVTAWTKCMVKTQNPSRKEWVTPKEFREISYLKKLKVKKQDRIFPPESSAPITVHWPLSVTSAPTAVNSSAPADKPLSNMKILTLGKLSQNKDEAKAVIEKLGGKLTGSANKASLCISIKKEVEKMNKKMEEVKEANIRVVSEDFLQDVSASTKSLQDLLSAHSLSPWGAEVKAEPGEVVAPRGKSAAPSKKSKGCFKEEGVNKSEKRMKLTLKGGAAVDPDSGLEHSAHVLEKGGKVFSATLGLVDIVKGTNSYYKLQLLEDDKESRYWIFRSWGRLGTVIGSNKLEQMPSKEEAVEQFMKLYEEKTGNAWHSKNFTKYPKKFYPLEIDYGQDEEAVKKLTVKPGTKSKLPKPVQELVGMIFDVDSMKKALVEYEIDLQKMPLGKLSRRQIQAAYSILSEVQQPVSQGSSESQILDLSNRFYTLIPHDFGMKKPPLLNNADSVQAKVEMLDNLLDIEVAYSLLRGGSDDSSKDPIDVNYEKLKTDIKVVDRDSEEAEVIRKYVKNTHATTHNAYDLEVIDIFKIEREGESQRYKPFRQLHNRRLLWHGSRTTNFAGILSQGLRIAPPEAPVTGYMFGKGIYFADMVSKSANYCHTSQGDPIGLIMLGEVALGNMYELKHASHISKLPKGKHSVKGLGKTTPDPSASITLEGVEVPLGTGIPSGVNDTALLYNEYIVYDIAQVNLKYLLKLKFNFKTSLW

SMILES: O=c1[nH]c2c(c3ccccc13)Cc1cc(S(=O)(=O)NCCCN3CCOCC3)ccc1-2 [Compound 8l (mesylate salt), 9-[N-(3-[morpholino-4-yl]propyl)-aminosulphonyl]-5,6-dihydro-5-oxo-11H-indeno-[1,2c]isoquinoline]
reduction in the degree of cortical necrosis and neuronal death [1]: approximately 80%
mortality (death) in CLP induced shock (CLP induced shock): 60%
reduction of the increase in the permeability of the gut ([2]; 3 mg/kg i.v. 10 min prior to reperfusion, 45 min occlusion, 1 h reperfusion, FD4 method): approximately 73%
mortality ([2]; gut ischemia-reperfusion, over 12 hours, untreated 80%): 15%
endotoxin-induced mortality (Balb/c mice): 10%

inhibition at 0.1 µM (PARS; 100 nM): 27%
inhibition at 0.3 µM (PARS; 300 nM): 45%
SMILES: CCN(CC)CCN(CCN(CC)CC)S(=O)(=O)c1ccc2c(c1)=Cc1c3c(c(=O)[nH]c1=2)=CC=CC3 [Compound 8p, 9-[N,N-di-(2-[N,N-diethylamino]ethyl)-aminosulphonyl]-5,6-dihydro-5-oxo-1H-indeno-[1,2-c]isoquinoline]
TNF (TNF-alpha; 0.1 mg/kg i.p. pretreatment): 4470.0 ± 184.4
TNF (TNF-alpha; 1.0 mg/kg i.p. pretreatment): 5090.8 ± 203.7
Glucose [3]: 264 ± 24 mg/dL

SMILES: O=c1[nH]c2c(c3ccccc13)Cc1cc(S(=O)(=O)NCCCN3CCOCC3)ccc1-2 [Compound 8l, 9-[N-(3-[morpholino-4-yl]propyl)-aminosulphonyl]-5,6-dihydro-5-oxo-11H-indeno-[1,2c]isoquinoline]
Cytotoxicity (thymocytes; 30 nM 8l (mesylate salt per title)): 74%
Cytotoxicity (thymocytes; 100 nM 8l (mesylate salt per title)): 39%
Cytotoxicity (thymocytes; 300 nM 8l (mesylate salt per title)): 2%
Cytotoxicity (thymocytes; 1 μM 8l (mesylate salt per title)): 0%
Cytotoxicity (thymocytes; 3 μM 8l (mesylate salt per title)): 0%
Glucose [3]: 244 ± 21 mg/dL

% PARS inhibition at 100 nM (PARS; 100 nM): 34%
% PARS inhibition at 300 nM (PARS; 300 nM): 76%
SMILES: O=c1[nH]c2c(c3ccccc13)Cc1cc(S(=O)(=O)NCCN3CCOCC3)ccc1-2 [Compound 8j, 9-[N-(2-[morpholino-4-yl]ethyl)-aminosulphonyl]-5,6-dihydro-5-oxo-11H-indeno[1,2-c]isoquinoline]
TNF (TNF-alpha; 0.1 mg/kg i.p. pretreatment): 3831.6 ± 385.2
TNF (TNF-alpha; 1.0 mg/kg i.p. pretreatment): 5038.8 ± 377.1
Glucose [3]: 253 ± 24 mg/dL
